Source: the NIST ThermoML archive (doi:10.1016/j.fluid.2010.08.022)

Conditions: 101.33 kPa, Liquid crystal of unknown type; for speed of sound: Sing-around technique in a fixed-path interferometer; for mass density: Vibrating tube method

CCCCCCCC/C=C\CCCCCCCC(=O)[O-].OCC[NH2+]CCO [bis(2-hydroxyethyl)ammonium oleate]
Conditions	mass density [kg/m3]	speed of sound [m/s]
278.14 K	978.16	1601.5
278.39 K	977.996	1600.3
278.64 K	977.834	1599.2
278.89 K	977.67	1598.1
279.14 K	977.506	1596.9
279.39 K	977.342	1595.7
279.64 K	977.177	1594.6
279.89 K	977.017	1593.5
280.15 K	976.852	1592.3
280.4 K	976.689	1591.2
280.65 K	976.525	1590.1
280.89 K	976.361	1589
281.15 K	976.197	1587.9
281.4 K	976.035	1586.8
281.65 K	975.87	1585.7
281.9 K	975.706	1584.6
282.15 K	975.544	1583.5
282.4 K	975.38	1582.5
282.65 K	975.217	1581.4
282.9 K	975.053	1580.3
283.15 K	974.89	1579.3
283.4 K	974.726	1578.2
283.65 K	974.562	1577.2
283.9 K	974.401	1576.2
284.15 K	974.236	1575.1
284.4 K	974.073	1574
284.65 K	973.91	1573
284.9 K	973.745	1572
285.15 K	973.584	1571
285.4 K	973.419	1569.9
285.65 K	973.258	1568.9
285.9 K	973.092	1567.9
286.15 K	972.93	1566.9
286.4 K	972.766	1565.8
286.65 K	972.604	1564.8
286.9 K	972.442	1563.8
287.15 K	972.275	1562.8
287.4 K	972.113	1561.8
287.65 K	971.951	1560.8
287.9 K	971.788	1559.8
288.15 K	971.625	1558.8
288.4 K	971.46	1557.8
288.65 K	971.299	1556.7
288.9 K	971.135	1555.8
289.15 K	970.972	1554.8
289.4 K	970.811	1553.8
289.65 K	970.645	1552.8
289.9 K	970.483	1551.8
290.15 K	970.32	1550.8
290.4 K	970.158	1549.8
290.65 K	969.995	1548.9
290.9 K	969.831	1547.9
291.15 K	969.668	1546.9
291.4 K	969.506	1545.9
291.65 K	969.343	1544.9
291.9 K	969.18	1543.8
292.15 K	969.016	1542.7
292.4 K	968.854	1541.7
292.65 K	968.691	1540.8
292.9 K	968.527	1539.8
293.15 K	968.365	1538.9
293.4 K	968.202	1538
293.65 K	968.039	1537.1
293.9 K	967.876	1536.2
294.15 K	967.713	1535.3
294.4 K	967.548	1534.4
294.65 K	967.388	1533.5
294.91 K	967.225	1532.7
295.15 K	967.061	1531.8
295.4 K	966.898	1530.9
295.66 K	966.735	1530
295.91 K	966.572	1529.1
296.16 K	966.408	1528.3
296.4 K	966.246	1527.4
296.66 K	966.084	1526.5
296.91 K	965.921	1525.6
297.16 K	965.758	1524.8
297.41 K	965.595	1523.9
297.66 K	965.433	1523
297.91 K	965.27	1522.2
298.16 K	965.108	1521.3
298.41 K	964.945	1520.5
298.66 K	964.781	1519.6
298.9 K	964.619	1518.8
299.15 K	964.457	1517.9
299.4 K	964.294	1517.1
299.66 K	964.132	–
299.91 K	963.968	1515.4
300.16 K	963.805	1514.5
300.4 K	963.642	1513.7
300.66 K	963.481	1512.8
300.9 K	963.318	1512
301.16 K	963.154	1511.2
301.41 K	962.991	1510.3
301.66 K	962.83	1509.5
301.91 K	962.666	1508.7
302.16 K	962.503	1507.8
302.41 K	962.341	1507
302.66 K	962.178	1506.1
302.91 K	962.013	1505.3
303.16 K	961.853	1504.5
303.41 K	961.689	1503.6
303.66 K	961.527	1502.8
303.91 K	961.364	1502
304.16 K	961.2	1501.2
304.41 K	961.038	1500.3
304.66 K	960.875	1499.5
304.91 K	960.712	1498.7
305.16 K	960.55	1497.9
305.41 K	960.387	1497
305.66 K	960.223	1496.2
305.91 K	960.061	1495.4
306.16 K	959.898	1494.6
306.4 K	959.736	1493.8
306.65 K	959.573	1493
306.91 K	959.409	1492.1
307.16 K	959.246	1491.3
307.41 K	959.083	1490.5
307.66 K	958.92	1489.7
307.91 K	958.759	1488.9
308.16 K	958.595	1488.1
308.4 K	958.43	1487.3
308.65 K	958.268	1486.5
308.91 K	958.105	1485.7
309.16 K	957.942	1484.9
309.4 K	957.779	1484.1
309.66 K	957.617	1483.3
309.91 K	957.453	1482.5
310.16 K	957.289	1481.7
310.41 K	957.128	1480.9
310.66 K	956.963	1480.1
